Measured values from patent US4066678A (priority 1975, dated 1978).

Legend:
Hygroscopic property = format: physicochemical
Clinical use: depression = format: in vivo, patients; conditions: about 100mg/body/day oral
Excerpt: In moderate depression, about at the 8th day after drug administration, the improvement is observed.

[1] = Effect of NaOGe on Diabetes Mellitus in human being; format: in vivo; conditions: in words
Procedure: The duration of drug administration was at the least 1 month, at the most 12 months. The following results are obtained:
(§1) *Numbers showing good response / total numbers
Dr. A. Ishikawa of our research group has investigated the effect of NaOGe on Diabetes Millitus in human being. The administration of 40-150 mg/kg body of NaOGe was divided orally in two or three doses.

[2] = Effect of NaOGe on development of amyloidosis in mice; format: in vivo, ICR strain mice; conditions: in words
Procedure: From the above results, it was presumed that OGe might act not only hypertension but some of metabolic changes related to aging. Thus, the influence of NaOGe on the development of amyloidosis in mice was tested. The ICR strain mice had been treated with oral administration of NaOGe for 22 months. After that, all mice were sacrificed and the development of amyloidosis in several important organs was investigated.

Clinical use: hepatoma = conditions: in vivo
[3] = Clinical use: schizophrenia; format: in vivo, patients; conditions: 200-300mg/body/day oral
Procedure: The oral administration of 200mg/body/day ~ 300mg/body/day is necessary.

[4] = Clinical use: allergic diseases; format: in vivo, patients
[5] = Clinical use: kidney function; conditions: in vivo
Mice (ICR strain) = assay: Acute toxicity of NaOGe in mice; format: in vivo; conditions: per os, female
Excerpt: (§2) Acute Toxicities of NaOGe according to the […]

[6] = Acute toxicity of NaOGe in mice; format: in vivo, Mice (ICR strain); conditions: mouse, in vivo, po; per os, male
Excerpt: as §2

[7] = Clinical use: protective effect of drug administration for long periods; format: in vivo; conditions: 50mg/body/day administered with the others, long-term
AH44 = assay: Effect on ascites hepatoma AH44 in rats; format: in vivo, Doryu rats; conditions: 100mg/kg/day for 10 days, all control rats died
Procedure: (§3) Dr. H. Sato, of our research group, investigated the antitumor effect of NaOGe by using several strains of ascites hepatoma in rats. For this investigation, the following […] strains of hepatoma were used: AH13, AH130, AH272, AH44, AH66F, AH7974, AH41C, AH60C and AH109A. 10^7 cells of each strain tumor were inoculated intravenously into the Doryu rats, 72 hours later, 100mg/kg/day of OGe was administered for 10 days.

[8] = Clinical use: acceleration of heart function; format: in vivo, patients
[9] = Effect of NaOGe on essential hypertension in human being; format: in vivo; conditions: in words
Procedure: Dr. A. Ishikawa, of our research group, has investigated the effect of NaOGe on essential hypertension in human being. The adminstration of 40-150 mg/body of NaOGe was divided orally in two or three doses. The duration of drug administration was at the least 1 month, at the most 12 months. The following results are obtained:
as §1

[10] = Clinical use: therapy of dysfunction liver (hepatitis); format: in vivo, patients
Procedure: In patients receiving 100mg/body/day of the drug, the improvement of alkali phosphatase, SGOT, SGPT, ASAC and α-GPT and abnormal fraction of serum-protein was observed.

[11] = Clinical use: improvement of peripheral circulation; format: in vivo, patient
Excerpt: This is observed by plethysmography.

[12] = Clinical use: general fatigue, malaise and asthenia; format: in vivo
Clinical use: migrain = format: in vivo
[13] = Clinical use: loss of autonomic nervous system function; format: in vivo, patients
ascites hepatoma = assay: Direct cytocidal action of NaOGe; set-up: species or system rats; conditions: in words
infants = assay: Clinical use: infants; format: in vivo
[14] = Clinical use: effect in obstetrics; format: in vivo, patients
Excerpt: The drug is particularly-effective on various symptoms including morning sickness caused by pregnance.

AH66 = assay: Effect on ascites hepatoma AH66 in rats; format: in vivo, Doryu rats; conditions: 100mg/kg/day for 10 days, all control rats died
Procedure: as §3

[15] = Clinical use: peripheral neuritis; format: in vivo, patients; conditions: 100mg/body/day
Clinical use: epilepsy = format: in vivo, patients
Procedure: A large amount therapy, 100-500mg/body/day in a dosis, is performed. […] In these points, the patients are humanly matured.

Rats (Wistar strain) = assay: Acute toxicity of NaOGe in rats; format: in vivo; conditions: per os, female
Excerpt: as §2

[16] = Acute toxicity of NaOGe in rats; format: in vivo, Rats (Wistar strain); conditions: rat, in vivo, po; per os, male
Excerpt: as §2

[17] = Clinical use: digestive system; format: in vivo
Excerpt: The effect is found clearly by X-ray examination.

[18] = Clinical use: liver cirrhose; format: in vivo, patients; conditions: 100-200mg/body/day
[19] = tested on: Spontaneously Hypertensive Rats; assay: Effect of NaOGe on blood pressure of spontaneously hypertensive rats; format: in vivo, rats (SHR strain); conditions: in words
Procedure: To investigate the effect of NaOGe on hypertension, 100mg/kg/day of sodium salt of OGe had been administered to spontaneously hypertensive rats (SHR strain) and estimated the change of blood pressure.

[20] = cadmium chloride 2.0 mg/kg iv alone, 8th day of gestation
[21] = 75mg/body/day, asthma bronchitis and chronic exanthema

O=C([O-])C[CH2][Ge]([OH])([OH])[OH].[NH4+] [Ammonium 3-trihydroxygermylpropionate]
hygroscopic property (Hygroscopic property): hydroscopic

[Cl][Cd][Cl] [Cadmium chloride]
teratogenic action (golden hamster; 2.0mg/kg intravenously, 8th day of gestation, in words): produces cleft palate, exencepalia, harelips and open-eye lid | Living fetuses (golden hamster; [20]): 4.9% | Malformation (golden hamster; [20]): 25.5% | Resorbed embryos (golden hamster; [20]): 51.0%

O=C([O-])C[CH2][Ge]([OH])([OH])[OH].[Na+] [NaOGe, Sodium 3-trihydroxygermylpropionate]
depressive status (Clinical use: depression): improvement of depressive status | drowsiness (Clinical use: depression): does not give any drowsiness | initiation of autonomy (Clinical use: depression): clearly observed after drug administration | effect on Diabetes Mellitus [1]: effective on Diabetes Mellitus | development of amyloidosis ([2]; 30mg/kg/day): a clear prevention of the development was observed | development of amyloidosis ([2]; 300mg/kg/day): completely inhibited the development of amyloidosis | life span (Clinical use: hepatoma): increase of life span | hullucination [3]: the disappearance of hullucination is accelerated | self-recognization of the disease [3]: clearly found rather early after drug administration | working ability [3]: The working ability is observed | condition 6 months to 1 year after drug administration ([4]; 75mg/body/day, 6 months to 1 year): many patients show a condition looking like a complete cure | frequency of symptom-appearance [4, 21]: decrease of the frequency of symptom-appearance | interval of symptom appearance [4, 21]: becomes longer | use of adrenal cartex hormone [4, 21]: decrease of adrenal cartex hormone or stop of the hormone | drug allergic reaction ([4]; patients with drug allergy, given with an allergenic drug): any drug allergic reaction is not observed | appearance of proteiureia [5]: the appearance of proteiureia is inhibited | diuretic effect [5]: diuretic effect is observed | LD50 (Mice (ICR strain)): over 10 g/kg | LD50 [6]: > 10000 mg/kg | side effects of tranquilizers and anti-tuberculosis drugs [7]: decrease of side effects | treated rats showing a complete cure (AH44): half | blood-stream ([8]; 75-150mg/body/day): increase of blood-stream | ECG pattern ([8]; 75-150mg/body/day, patients with blood-loss ECG symptom): improvement of ECG pattern | effect on blood-vessels ([8]; from the effect on the eye ground symptoms): stabilizing effect of blood-vessels | subcutaneous bleeding of legs and hands ([8]; old people): inhibited | effect in treatment and prevention of essential hypertension [9]: effective in the treatment and the prevention of essential hypertension | hygroscopic property (Hygroscopic property): hydroscopic | alkali phosphatase, SGOT, SGPT, ASAC and α-GPT and abnormal fraction of serum-protein ([10]; 100mg/body/day): improvement | spontaneous cure of acute and chronic hepatitis ([10]; human, in vivo): acceleration of the spontaneous cure | cold exanthema ([11]; human, in vivo): protects the appearance of cold exanthema | peripheral circulating blood amount ([11]; single administration of 50 mg/body/day, plethysmography): increase of peripheral circulating blood amount | symptoms of general fatigue, malaise and asthenia ([12]; 75mg/body/day): loss of the symptoms of general fatigue, malaise and asthenia | symptoms due to neurosis ([12]; increase of dose to 75mg/body/day): early the disappearance of the symptoms due to neurosis | effect on migraine (Clinical use: migrain; 75mg/body/day): effective on migraine | symptoms caused by brain-anemia (Clinical use: migrain; in vivo): shows the effect on the symptoms caused by brain-anemia | effect in patients resistant to other drugs ([13]; 75mg/body/day oral): shows the effect on many patients showing resistance against any other drugs | objective and functional abnormality of various organs controlled by autonomic nervous system ([13]; after drug administration): are not found after drug administration | direct cytocidal action (ascites hepatoma): does not possess direct cytocidal action | actonic vomiting and autointoxication (infants; 20 - 50 mg/body/day): effective on actonic vomiting and autointoxication of infants | body weight (infants; 100-200mg/body/day, infants showing decrease of body weight): increase | effect in serious patients indicated for artificial pregnance stopping ([14]; 100-200mg/body/day): effective one some serious patients | symptoms including morning sickness ([14]; human, in vivo): particularly-effective | Malformation produced by cadmium chloride (golden hamster; NaOGe 40.0mg/kg, simultaneous intravenous injection, in words): prevented completely | treated rats showing a complete cure (AH66): half | effect on peripheral neuritis [15]: become to enjoy normal daily life without serious pain | EEG: epilepsy specific spike (Clinical use: epilepsy; 100-500mg/body/day oral): the loss of epilepsy specific spike is found | EEG: slow burst (Clinical use: epilepsy; 100-500mg/body/day oral): the inhibition of slow burst is not observed | drowsiness (Clinical use: epilepsy; 100-500mg/body/day oral): complete lack of drowsiness | grade of convulsion (Clinical use: epilepsy; 100-500mg/body/day oral): becomes lighter | interval of convulsion appearance (Clinical use: epilepsy; 100-500mg/body/day oral): becomes gradually longer | learning and working ability (Clinical use: epilepsy; 100-500mg/body/day oral): the improvement of learning -- and working -- ability is observed | absence of symptoms (Clinical use: epilepsy; continued oral administration, 100-500mg/body/day): many patients did not show any symptom | LD50 (Rats (Wistar strain)): over 10 g/kg | LD50 [16]: > 10000 mg/kg | subjective symptoms and ulcers ([17]; X-ray examination): loss of subjective symptoms and the cure of ulcers | effect on constipation ([17]; in vivo): effective on constipation | movement of stomach and intestine ([17]; in vivo): modification of movement of stomach and intestine | effect compared with other therapy ([17]; ulcers): higher than any other therapy | ascites [18]: beginning of the loss of ascites | liver function [18]: acceleration of the recovery of liver function | progress of liver dysfunction [18]: stopped the progress of liver dysfunction

O=C(O)C[CH2][Ge]([OH])([OH])[OH] [OGe, 3-trihydroxygermylpropionic acid]
effect on hypertension in rats [19]: highly effective on hypertension in rats and the effect appears gradually
